In patent US9017692B2, “Antimicrobial agent, bacterial strain, biosynthesis, and methods of use” (priority 2011, dated 2015):
In brackets after ≈: the same amount, converted by molar mass.

Key:
Test in all cases: microbe, parasite or virus in culture
MSSA ATCC 29213 SAU.42 = system: MSSA ATCC 29213 SAU.42
Experimental: (§1) The activity of paenibacterin against several strains of Gram-positive and Gram-negative foodborne pathogens is summarized in Table 10. The data is reported as minimum inhibitory concentrations (MIC) as an average of three replicates for paenibacterin against the various listed bacterial strains. […] MICs were determined according to the CLSI broth microdilution method (see, Clinical and Laboratory Standards Institute (CLSI). 2009. Methods for dilution antimicrobial susceptibility tests for bacteria that grow aerobically; approved standard. […]. CLSI, Wayne, Pa.). Briefly, HPLC-purified paenibacterin was dissolved in methanol and diluted to appropriate concentration with cation-adjusted Mueller-Hinton II broth (Difco). Aliquots (25 μl) of serially-diluted paenibacterin was dispensed into wells of a 96-well plate; an equal amount of 1/10 diluted overnight bacterial culture was added to wells. Plates were incubated at 35° C. for 24 h. Cell growth after incubation was examined and determined using a microtiter plate reader at 600 nm. Concentration of paenibacterin is determined based on a molecular weight of 1604 Da.
(§2) The activity of paenibacterin was further tested against clinical isolates of the following Gram-positive bacteria: methicillin-sensitive Staphylococcus aureus (MSSA), methicillin-resistant S. aureus (MRSA), vancomycin-sensitive Enterococcus faecalis, vancomycin-resistant E. faecalis (VRE), Streptococcus pneumoniae, and laboratory derived daptomycin-resistant (DR) MSSA, MRSA, and VRE strains. The MICs were determined using the above described CLSI broth microdilution method, in which the method was performed with non-binding surface coated (NBS) 96-well plates.

WT ATCC 49619 SPN.31 = system: WT ATCC 49619 SPN.31
Experimental: as §1, §2

WT ATCC 29212 EFS.43 = system: WT ATCC 29212 EFS.43
Experimental: as §1, §2

MRSA ATCC 43300 SAU.399 = system: MRSA ATCC 43300 SAU.399
Experimental: as §1, §2

[1] = system: DR-MRSA from MW2 SP SAU.1616
Experimental: as §1, §2

[2] = system: DR-MSSA from SAU.42 SAU.278
Experimental: as §1, §2

[3] = system: DS-VRE ATCC 700802 EFS.807
Experimental: as §1, §2

[4] = system: DR-VRE from EFS.807 EFS.2731
Experimental: as §1, §2

Structure (SMILES)	MIC (MSSA ATCC 29213 SAU.42; Staphylococcus aureus, ATCC29213|MSSA, read-out: Minimum inhibitory concentration (MIC)) [µg/mL]	MIC (WT ATCC 49619 SPN.31; Streptococcus pneumoniae, ATCC49619, read-out: Minimum inhibitory concentration (MIC)) [µg/mL]	MIC (WT ATCC 29212 EFS.43; Enterococcus faecalis, ATCC29212, read-out: Minimum inhibitory concentration (MIC)) [µg/mL]	MIC (MRSA ATCC 43300 SAU.399; Staphylococcus aureus, ATCC43300|MRSA, read-out: Minimum inhibitory concentration (MIC)) [µg/mL]	MIC ([1]; Staphylococcus aureus, MRSA, read-out: Minimum inhibitory concentration (MIC)) [µg/mL]	MIC ([2]; Staphylococcus aureus, MSSA, read-out: Minimum inhibitory concentration (MIC)) [µg/mL]	MIC ([3]; Enterococcus faecalis, ATCC700802|VRE, read-out: Minimum inhibitory concentration (MIC)) [µg/mL]	MIC ([4]; Enterococcus faecalis, VRE, read-out: Minimum inhibitory concentration (MIC)) [µg/mL]	Minimum inhibitory concentration (MIC) (MSSA ATCC 29213 SAU.42; ATCC 29213) [µg/mL]	Minimum inhibitory concentration (MIC) (WT ATCC 49619 SPN.31; ATCC 49619) [µg/mL]	Minimum inhibitory concentration (MIC) (WT ATCC 29212 EFS.43; ATCC 29212) [µg/mL]	Minimum inhibitory concentration (MIC) (MRSA ATCC 43300 SAU.399; ATCC 43300) [µg/mL]	Minimum inhibitory concentration (MIC) ([1]; SAU.1616, DR-MRSA from MW2 SP, NBS 96-well plates) [µg/mL]	Minimum inhibitory concentration (MIC) ([2]; SAU.278, DR-MSSA from SAU.42, NBS 96-well plates) [µg/mL]	Minimum inhibitory concentration (MIC) ([3]; ATCC 700802) [µg/mL]	Minimum inhibitory concentration (MIC) ([4]; EFS.2731, DR-VRE from EFS.807, NBS 96-well plates) [µg/mL]
CN[C@H](CC(C)C)C(=O)N[C@H]1C(=O)N[C@@H](CC(N)=O)C(=O)N[C@H]2C(=O)N[C@H]3C(=O)N[C@H](C(=O)N[C@H](C(=O)O)c4cc(O)cc(O)c4-c4cc3ccc4O)[C@H](O)c3ccc(c(Cl)c3)Oc3cc2cc(c3O[C@@H]2O[C@H](CO)[C@@H](O)[C@H](O)[C@H]2O[C@H]2C[C@](C)(N)[C@H](O)[C@H](C)O2)Oc2ccc(cc2Cl)[C@H]1O [vancomycin]	1 (≈ 0.69 µM)	16 (≈ 11 µM)	2 to 4 (≈ 1.38 to 2.76 µM)	2 (≈ 1.38 µM)	2 (≈ 1.38 µM)	2 (≈ 1.38 µM)	16 to 32 (≈ 11 to 22.1 µM)	32 (≈ 22.1 µM)	–	–	–	–	–	–	–	–
CCCCCCCCCC(=O)N[C@@H](Cc1c[nH]c2ccccc12)C(=O)N[C@H](CC(N)=O)C(=O)N[C@@H](CC(=O)O)C(=O)N[C@@H]1C(=O)NCC(=O)N[C@@H](CCCN)C(=O)N[C@@H](CC(=O)O)C(=O)N[C@H](C)C(=O)N[C@@H](CC(=O)O)C(=O)NCC(=O)N[C@H](CO)C(=O)N[C@@H]([C@H](C)CC(=O)O)C(=O)N[C@@H](CC(=O)c2ccccc2N)C(=O)O[C@@H]1C [daptomycin]	–	–	–	–	–	–	–	–	0.5 (≈ 0.309 µM)	0.5 (≈ 0.309 µM)	2 (≈ 1.23 µM)	0.5 (≈ 0.309 µM)	16 (≈ 9.87 µM)	8 (≈ 4.94 µM)	1 (≈ 0.617 µM)	>32
